From patent US5242945A, “Tetronic and thiotetronic acid derivatives as phospholipase A2 inhibitors” (American Home Products Corporation, priority 1991, dated 1993)

Legend:
[1] = test system: lipoxygenase and/or cyclooxygenase pathways of arachidonic acid metabolism; test: in vivo murine zymosan peritonitis assay; parameters: species or system mouse (CD-1); conditions: for ED50 LTC4: p.o.
Protocol: The compounds of the invention are evaluated for their ability to inhibit the lipoxygenase and/or cyclooxygenase pathways of arachidonic acid metabolism in the in vivo murine zymosan peritonitis assay.
Male CD-1 mice (8 weeks old) are placed in plastic boxes in groups of six. Animals are injected with 1 mL i.p. of either 1% zymosan in pyrogen free 0.9% saline or saline (unstimulated control). Compounds are dosed orally 1 hour prior to zymosan injection. Twenty minutes after zymosan injection, the mice are asphyxiated by CO2 inhalation and the peritoneal cavity is lavaged with 2 mL ice cold Hanks Balanced Salt Solution (HBSS) without CaCl2, MgSO4. 7H2 O and MgCl2.6H2 O. Peritoneal lavage fluid from each mouse is removed by syringe and placed in 5 mL plastic test tubes put on ice and volume is noted. Preparation of samples for evaluation by ELISA is as follows: Samples are centrifuged at 800 xg for 15 minutes; 1 mL of the supernatant is added to 8 mL ice cold methanol and kept at -70° C. overnight to precipitate protein; and samples are then centrifuged at 800 xg for 15 minutes, followed by a drying procedure in a Savant speed vac concentrator. The samples are reconstituted with 1 mL ice cold ELISA buffer and stored at -70° C. until assayed. The assay for eicosanoids (LTC4 and 6-keto-PGF1α) is performed according to conventional ELISA procedures.
Compounds to be tested orally are suspended in 0.5% Tween 80. Compounds to be tested intraperitoneally are suspended in 0.5% methylcellulose in 0.9% saline.
The total metabolite level in lavage fluid/mouse is calculated and the significance is determined by a one-way analysis of variance with LSD comparisons to control (p≤0.05). Drug effects are expressed as a percent change from control values.

[2] = test system: AA-induced ear edema; test: arachidonic acid (AA)-induced murine ear edema assay; type: in vivo, mouse (Swiss Webster); conditions: for ED50: Mus musculus, 1 h, oral
[3] = biological target: T1, human platelet PLA2 (Homo sapiens, UniProt P14555); test: in vitro isolated phospholipase A2 assay, human platelet PLA2; type: biochemical; conditions: at 10 μM; + values given without explanation; read-out: % Inhibition HP (human platelet)
T1 construct: platelet acid extract PLA2; from tissue; host or cells: human platelets, semipurified acid extract
T1 sequence (P14555 21-144): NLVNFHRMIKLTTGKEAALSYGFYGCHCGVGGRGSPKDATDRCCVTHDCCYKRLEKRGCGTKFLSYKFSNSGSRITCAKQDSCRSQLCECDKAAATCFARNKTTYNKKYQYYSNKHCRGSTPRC
How it was run: (§1)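 PLA2 from semipurified human platelet acid extract or purified human synovial fluid, preincubated 30 min at room temperature with compound. ³H-arachidonate-labelled E. coli substrate then added in Tris-HCl pH 7.5, with enzyme giving about 12% hydrolysis. Reaction ran 10 min at 37° C; released arachidonic acid recovered on NH2 columns and measured by β-counting.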

[4] = test system: carrageenan paw edema; test: rat carrageenan paw edema assay; type: in vivo, rat (Sprague-Dawley); conditions: 50 mg/kg peroral
Protocol: The compounds of the invention are further tested in the rat carrageenan paw edema assay to determine their ability to inhibit the acute inflammatory response.
140-180 g Male Sprague-Dawley rats, in groups of 6 animals are injected subcutaneously in the right paw with 0.1 mL of 1% carrageenan at zero time. Mercury plethysmographic readings (mL) of the paw are made at zero time and 3 hours later. Test compounds are suspended or dissolved in 0.5% methylcellulose and given perorally 1 hour prior to carrageenan administration.
The increase in paw volume (edema in mL) produced by the carrageenan is measured. Paw edema is calculated (3 hour volume minus zero time volume), and percent inhibition of edema is determined. Unpaired Student's t-test is used to determine statistical significance.

[5] = biological target: T2, human synovial fluid PLA2 (Homo sapiens, UniProt P14555); test: in vitro isolated phospholipase A2 assay, human synovial fluid PLA2; type: biochemical; conditions: for IC50: Table IV, read-out: IC50 HSF (human synovial fluid); for inhibition at 10 µM: + values given without explanation, read-out: % Inhibition HSF (human synovial fluid)
T2 construct: Purified human synovial fluid; from tissue; host or cells: human synovial fluid
T2 sequence (P14555 21-144): T1 sequence (P14555 21-144)
How it was run: as §1

[6] = test system: purified PLA2, from the diamond back cotton mouth snake (A. piscivorus piscivorus); test: in vivo PLA2 murine paw edema assay; parameters: species or system A. piscivorus piscivorus PLA2 in CD-1 mice
Protocol: The ability of the compounds of the invention to inhibit paw edema induced by the exogenous administration of PLA2 is measured in the in vivo PLA2 murine paw edema assay.
Non-fasted, male CD-1 mice (8 weeks old; 31-36 grams) are placed in plastic boxes in groups of six. The right hind paw volume is measured using mercury plethysmography (zero time). Compounds are dosed orally (0.5 mL of 0.5% Tween-80) 1 or 3 hours prior to PLA2 injection or intravenously (0.2 mL in 0.3% dimethylsulfoxide/saline) 3 minutes prior to PLA2 injection. A solution of purified PLA2, from the diamond back cotton mouth snake (A. piscivorus piscivorus) is prepared in saline at a concentration of 6 μg/mL. Fifty (50) μL (0.3 μg) of this PLA2 solution is injected subcutaneously into the right hind paw with a plastic 1 mL plastic syringe (27 gauge, 1" needle). Paw volume of the injected paw is measured again at 10 minutes, 30 minutes and 60 minutes after PLA2 injection. Animals are euthanized with CO2 at the completion of the study.
The paw edema is calculated by subtracting the zero time volume from the volume recorded at each time period. Mean paw edema for each treatment group is then calculated and expressed as (μL±S.E.). Drug effects are expressed as a percent change from control (vehicle) values. Statistical significance is determined by a one-way analysis of variance with LSD comparison to control (p<0.05). ED50 's are determined using […].

[7] = test system: lipoxygenase (LTB4 or 5HETE synthesis); test: inhibition of LTB4 and 5-HETE synthesis by rat glycogen-elicited polymorphonuclear leukocytes; type: cell-based, rat (female Wistar); conditions: Leukocyte; at 10 μM; rat PMN; + with * denotes potentiation; read-out: % Inhibition LTB4
Source text: This is especially true with respect to 5,12-diHETE, which is also denoted as LTB4 [see Ford-Hitchinson, J. Roy. Soc. Med., 74, 831 (1981)]. Compounds which inhibit the PLA2 -mediated release of arachidonic acid thereby effectively prevent the oxidation of arachidonic acid to the various leukotriene products via the lipoxygenase cascade. Accordingly, the specificity of action of PLA2 inhibitors can be determined by the activity of test compounds in this assay, which measures the ability of compounds to inhibit the synthesis of LTB4 and 5-HETE by rat glycogen-elicited polymorphonuclear leukocytes (PMN) in the presence of exogenous substrate.
(§2) Rat polymorphonuclear leukocytes (PMNs) are obtained from female Wistar rats (150-200 g) which receive an injection of 6% glycogen (10 ml i.p.). Rats are sacrificed 18-24 hours post injection by CO2 asphyxiation and the elicited cells are harvested by peritoneal lavage using physiological saline (0.9% NaCl). The exudate is centrifuged at 400 xg for 10 minutes. The supernatant fluid is discarded and the cell pellet is resuspended to a concentration of 2.0×10^7 cells/mL in HBSS containing Ca^++ and Mg^++ and 10 μM L-cysteine.
(§3) To 1 mL aliquots of cell suspension, test drugs or vehicle are added, then preincubated at 37° C. for 10 minutes. A23187 (1 μM), [^3 H]-AA (3.0 μCi/mL) and unlabeled AA (1 μM) are then added and the samples are further incubated for 10 minutes. The reaction is terminated by centrifugation and pelleting cells. Supernatants are then analyzed by HPLC analysis on a 15 cm×4.6 mm ID supelcosil LC-18 (Supelco)(3M) column, using a two solvent system at a flow rate of 1.4 mL total flow as follows:
Injections: 140 μL of each supernatant is injected directly onto column and ^3 H arachidonic acid metabolites are monitored using an on-line radioactivity detector (Ramona, IN/US, Fairfield, N.J.).
Co-chromatography with standard [^3 H] leukotriene B4 (LTB4) in medium of stimulated PMN exposed to drug is compared to that found in medium of stimulated cells exposed to no drug, generating percent inhibition.
Results are expressed as percent inhibition at a given compound dose or as an IC50 value.

[8] = test system: cyclooxygenase (PGE2 or TxB2 synthesis); test: inhibition of synthesis of cyclooxygenase products PGE2 and TxB2 by rat polymorphonuclear leukocytes; type: cell-based, rat (female Wistar); conditions: Leukocyte; at 10 μM; rat PMN; + with * denotes potentiation; read-out: % Inhibition TxB2
Protocol: as §2, §3
In this assay, the procedure of Example 58 is carried out as described. However, in order to determine cyclooxygenase activity, the samples are co-chromatographed with authentic reference [^3 H]-TxB2 or [^3 H]-PGE2.
The results are calculated as in Example 58 and presented below: […]

[9] = test system: TPA-induced ear edema; test: 12-o-tetradecanoylphorbol acetate (TPA)-induced murine ear edema assay; type: in vivo, mouse (Swiss Webster); conditions: oral, TPA-induced
Protocol: The ability of the compounds of the invention to inhibit inflammatory responses is examined in the in vivo arachidonic acid (AA)/12-o-tetradecanoylphorbol acetate (TPA)-induced murine ear edema assay.
Swiss Webster female mice (Buckshire), approximately 8 weeks old are placed into plastic boxes in groups of six. Eight groups of mice receive AA topically on the right ear, and another 8 groups receive TPA topically on the right ear. AA and TPA are dissolved in acetone at concentrations of 100 mg/ml and 100 μg/ml respectively. The phlogistics are applied to the right ear by the means of an automatic pipet. Volumes of 10 μl are applied to the inner and outer surfaces of the ear. Each mouse receives either 2 mg/ear AA or 2 μg/ear TPA. The left ear (control) receives acetone delivered in the same manner. Topical and subcutaneous dosing regimens are as follows 1) drugs are given 30 minutes prior to AA treatment and 2) drugs are given 30 minutes after treatment with TPA.
Measurements are taken with Oditest calipers, 0-10 mm with 0.01 graduations. The right and left ears are measured after 1 hr AA-induced inflammation and 4 hours after TPA-induced inflammation.
The difference between right and left ear thickness is calculated and the significance is determined by a one way analysis of variance with Dunnett's comparisons to control (P=0.05). Drug effects are expressed as a percent change from control values: [formula]

With `CC(C)Cc1ccc(C(C)C(=O)O)cc1` (stereo not shown) [Ibuprofen] the “ED50 LTC4” value [1] was “Not Active”.
With `O=C1CCN(c2ccccc2)N1` [Phenidone] the ED50 [2] was 85 mg/kg.
In the case of `O=C(/C=C/c1ccc(Cl)cc1)C1=C(O)COC1=O` [Example 7, (E)-4-Hydroxy-3-(3-(4-chlorophenyl)-1-oxo-2-propenyl)-2(5H)-furanone], the inhibition at 10 µM [3] is reported as 0%, the “% Inhibition” value [4] is reported as 47% and the IC50 [5] is reported as 1800 nM. For the same compound, the inhibition at 10 µM [5] was 98%, the “% Change in Edema 10 min” value ([6]; 10 mg/kg i.v.) was -19% and the “% Change in Edema 30 min” value ([6]; 10 mg/kg i.v.) was “+39%”. For the same compound, the “% Change in Edema 60 min” value ([6]; 10 mg/kg i.v.) was “+15%”, the “% Change in Edema 10 min” value ([6]; 100 mg/kg p.o.) was -24% and the “% Change in Edema 30 min” value ([6]; 100 mg/kg p.o.) was -4%. The “% Change in Edema 60 min” value ([6]; 100 mg/kg p.o.) was -9%, the inhibition at 10 µM [7] was 13% and the inhibition at 10 µM [8] was 18%.
`COc1ccc(/C=C/C(=O)C2=C(O)COC2=O)cc1` [Example 6, (E)-4-Hydroxy-3-(3-(4-methoxyphenyl)-1-oxo-2-propenyl)-2 (5H)-furanone] was tested, and the inhibition at 10 µM [3] was 0%, the “% Inhibition” value [4] was 31% and the IC50 [5] was 8700 nM. For the same compound, the inhibition at 10 µM [5] was 59%.
`COc1ccc2c(c1)c(CC(=O)O)c(C)n2C(=O)c1ccc(Cl)cc1` [indomethacin] was tested, and the “% Inhibition LTC4” value ([1]; 10 mg/kg p.o.) was “+25%”, the “ED50 LTC4” value [1] was “Not Active” and the “Oral ED50 (TPA)” value [9] was “inactive at 10”. For the same compound, the “Oral ED50 (AA)” value [2] was “inactive at 10”.
In the case of `O=C(/C=C/c1cccc([N+](=O)[O-])c1)C1=C(O)COC1=O` [Example 12, (E)-4-Hydroxy-3-(3-(3-nitrophenyl)-1-oxo-2-propenyl)-2 (5H)-furanone], the inhibition at 10 µM [3] is reported as 11%, the “% Inhibition” value [4] is reported as 30% and the IC50 [5] is reported as 2000 nM. The inhibition at 10 µM [5] was 82%, the “% Change in Edema 10 min” value ([6]; 10 mg/kg i.v.) was -11% and the “% Change in Edema 30 min” value ([6]; 10 mg/kg i.v.) was -19%. The “% Change in Edema 60 min” value ([6]; 10 mg/kg i.v.) was “+24%”, the “% Change in Edema 10 min” value ([6]; 100 mg/kg p.o.) was -27% and the “% Change in Edema 30 min” value ([6]; 100 mg/kg p.o.) was -33%. For the same compound, the “% Change in Edema 60 min” value ([6]; 100 mg/kg p.o.) was -2%, the inhibition at 10 µM [7] was 5% and the inhibition at 10 µM [8] was 9%.
With `NC1=NN(c2cccc(C(F)(F)F)c2)CC1` [BW 755c, reference compound] the ED50 ([9]; Mus musculus, 4 h, read-out: Oral ED50 (TPA)) was 88 mg/kg, the “ED50 at +10 min.” value ([6]; p.o., at +10 min) was 50 mg/kg and the ED50 [2] was 65 mg/kg.
